Experimental data as given in US20260250269A1, “APOPTOSIS INHIBITOR SALTS FOR CANCER” (priority 2022, published 2026).
Values joined by “and” are separate entries in the source; they are usually repeats but may differ in a detail not shown here. Equal values may be shown once. Read-outs that look alike come from different tables or passages of the source.

Key:
[1] = Solid form conversion on drying, heating or storage (XRPD); type: physicochemical
[2] = for Solubility / Solubility (in words): 37° C.; for Solubility: 24 hours; for Solubility (in words): PBS buffer
[3] = Competitive equilibration experiments of Form A and Form B; type: physicochemical
Procedure: About 5 mg of Form A and about 5 mg of the mixture of Form A and Form B were added to 0.2 mL saturated solutions in following solvents: water, ethanol, acetone, acetonitrile, ethyl acetate, and pyridine/water (1/9 v/v). Obtained suspensions were stirred at 25° C. and 50° C., respectively, for a duration between 4 days to 4 weeks. Solid parts (wet cakes) were isolated by centrifugation filtration and investigated by XRPD.

[4] = Solid-state thermal stability of the pamoate salt Form B; type: physicochemical
Procedure: Form B was placed at 25° C./92% relative humidity (RH) in an open container, at 40° C./75% RH in an open container, and at 60° C. in a tight container for 1 week. Samples were characterized by XRPD and HPLC and inspected for appearance including color change.

[5] = Hygroscopicity of Form B by dynamic vapor sorption (DVS); type: physicochemical
Procedure: Water sorption and desorption behavior of Form B was investigated by dynamic vapor sorption (DVS) at 25° C. with a cycle of 40-0-95-0-40% RH, dm/dt 0.002, minimum equilibration time of 60 min and maximum equilibration time 360 min.

[6] = Compression, dry grinding and wet granulation simulation experiments; type: physicochemical
Procedure: Compression: About 50 mg of Form B was compressed for 5 minutes under 10 MPa with a hydraulic press. Potential form change and degree of crystallinity were evaluated by XRPD.
Dry Grinding: About 20 mg of Form B was ground manually with a mortar and a pestle for 5 min. Potential form change and degree of crystallinity were evaluated by XRPD.
Wet Granulation: Water or ethanol was added drop wise to about 20 mg of Form B until the sample was wetted sufficiently. Wet sample was ground gently with a mortar and a pestle for 3 min. Post granulation sample was dried under ambient condition for 10 min. Potential form change and degree of crystallinity were evaluated by XRPD.

[7] = after solubility test in mouse plasma
[8] = after solubility test in pH 7.4 PBS buffer
[9] = 25° C./92% RH open container, 1 week
[10] = 40° C./75% RH open container, 1 week
[11] = 60° C. in a tight container, 1 week
[12] = relative humidity 0.0 at 25° C.
[13] = relative humidity 10.0 at 25° C.
[14] = relative humidity 20.0 at 25° C.
[15] = relative humidity 30.0 at 25° C.
[16] = relative humidity 40.0 at 25° C.
[17] = relative humidity 50.0 at 25° C.
[18] = relative humidity 60.0 at 25° C.
[19] = relative humidity 70.0 at 25° C.
[20] = relative humidity 80.0 at 25° C.
[21] = relative humidity 90.0 at 25° C.
[22] = relative humidity 95.0 at 25° C.

CC(=O)N(C)C.COCCn1c2c([n+](Cc3cnccn3)c1C)C(=O)c1ccccc1C2=O.COCCn1c2c([n+](Cc3cnccn3)c1C)C(=O)c1ccccc1C2=O.O=C([O-])c1cc2ccccc2c(Cc2c(O)c(C(=O)[O-])cc3ccccc23)c1O [Form G]
Solid form obtained on storage ([1]; storing at 25° C. for about 1 day): Form H

CCO.COCCn1c2c([n+](Cc3cnccn3)c1C)C(=O)c1ccccc1C2=O.COCCn1c2c([n+](Cc3cnccn3)c1C)C(=O)c1ccccc1C2=O.O=C([O-])c1cc2ccccc2c(Cc2c(O)c(C(=O)[O-])cc3ccccc23)c1O [Form C]
Solid form conversion ([1]; exposure to ambient condition about 2 hours and drying at 25° C. under vacuum about 2 hours): converted to a mixture of Form A and Form B

CC(=O)N(C)C.COCCn1c2c([n+](Cc3cnccn3)c1C)C(=O)c1ccccc1C2=O.COCCn1c2c([n+](Cc3cnccn3)c1C)C(=O)c1ccccc1C2=O.O=C([O-])c1cc2ccccc2c(Cc2c(O)c(C(=O)[O-])cc3ccccc23)c1O [Form H]
Solid form conversion ([1]; after heating to 170° C.): converted to a mixture of Form A and Form B

COCCn1c2c([n+](Cc3cnccn3)c1C)C(=O)c1ccccc1C2=O.COCCn1c2c([n+](Cc3cnccn3)c1C)C(=O)c1ccccc1C2=O.O=C([O-])c1cc2ccccc2c(Cc2c(O)c(C(=O)[O-])cc3ccccc23)c1O [Form A]
Form change by XRPD after solubility test [2]: no form change | Water solubility (in words) [2]: extremely low | XRPD of residual solids [2, 7]: Form A | XRPD of residual solids [2, 8]: Form A | XRPD of residual solids ([2]; after solubility test in water): Form A | Solubility ([2]; mouse plasma): 436 µg/mL and 403 µg/mL | Solubility ([2]; pH 7.4, PBS buffer): 84 µg/mL and 86 µg/mL | Solubility ([2]; water): 12 µg/mL and 13 µg/mL | Solubility (in words) ([2]; water, mouse plasma): comparable low solubility | Solid form conversion in competitive experiments ([3]; in ethanol, acetone, ACN and pyridine/water): converted to Form B

COCCn1c2c([n+](Cc3cnccn3)c1C)C(=O)c1ccccc1C2=O.COCCn1c2c([n+](Cc3cnccn3)c1C)C(=O)c1ccccc1C2=O.O=C([O-])c1cc2ccccc2c(Cc2c(O)c(C(=O)[O-])cc3ccccc23)c1O [Form B]
Appearance (Color) change [4, 9]: None | Purity by HPLC [4, 9]: 99.4% | XRPD [4, 9]: Form B | Physical and chemical stability ([4]; 25° C./92% RH, 40° C./75% RH, 60° C., 1 week): physically stable and chemically stable | Appearance (Color) change [4, 10]: None | Purity by HPLC [4, 10]: 99.5% | XRPD [4, 10]: Form B | Appearance (Color) change [4, 11]: none | Purity by HPLC [4, 11]: 99.4% | XRPD [4, 11]: Form B | Appearance (Color) change ([4]; Initial): None | Purity by HPLC ([4]; Initial): 99.3% | XRPD ([4]; Initial): Form B | Form change by XRPD after solubility test [2]: no form change | XRPD of residual solids [2, 7]: Form B | XRPD of residual solids [2, 8]: Form B | XRPD of residual solids ([2]; after solubility test in water): Form B | Solubility ([2]; mouse plasma): 342 µg/mL and 344 µg/mL | Solubility ([2]; pH 7.4, PBS buffer): 78 µg/mL | Solubility ([2]; water): 14 µg/mL and 13 µg/mL | Solubility (in words) ([2]; water, mouse plasma): comparable low solubility | Solid form by XRPD after the DVS test [5]: still Form B | Hygroscopicity (in words) ([5]; DVS at 25° C.): slightly hygroscopic | 1st desorption weight % change [5, 12]: 0.02 weight % | 1st sorption weight % change [5, 12]: 0.02 weight % | 2nd desorption weight % change [5, 12]: 0.00 weight % | 2nd sorption weight % change [5, 12]: 0.00 weight % | 1st desorption weight % change [5, 13]: 0.06 weight % | 1st sorption weight % change [5, 13]: 0.06 weight % | 2nd desorption weight % change [5, 13]: 0.05 weight % | 2nd sorption weight % change [5, 13]: 0.04 weight % | 1st desorption weight % change [5, 14]: 0.09 weight % | 1st sorption weight % change [5, 14]: 0.08 weight % | 2nd desorption weight % change [5, 14]: 0.08 weight % | 2nd sorption weight % change [5, 14]: 0.06 weight % | 1st desorption weight % change [5, 15]: 0.13 weight % | 1st sorption weight % change [5, 15]: 0.11 weight % | 2nd desorption weight % change [5, 15]: 0.10 weight % | 2nd sorption weight % change [5, 15]: 0.08 weight % | 1st desorption weight % change [5, 16]: 0.16 weight % | 1st sorption weight % change [5, 16]: 0.12 weight % | 2nd desorption weight % change [5, 16]: 0.13 weight % | 2nd sorption weight % change [5, 16]: 0.10 weight % | 1st sorption weight % change [5, 17]: 0.15 weight % | 2nd desorption weight % change [5, 17]: 0.16 weight % | 1st sorption weight % change [5, 18]: 0.17 weight % | 2nd desorption weight % change [5, 18]: 0.18 weight % | 1st sorption weight % change [5, 19]: 0.20 weight % | 2nd desorption weight % change [5, 19]: 0.21 weight % | 1st sorption weight % change [5, 20]: 0.23 weight % | 2nd desorption weight % change [5, 20]: 0.25 weight % | 1st sorption weight % change [5, 21]: 0.35 weight % | 2nd desorption weight % change [5, 21]: 0.38 weight % | 1st sorption weight % change [5, 22]: 0.64 weight % | 2nd desorption weight % change [5, 22]: 0.64 weight % | Water absorbed ([5]; up to 95% RH at 25° C.): about 0.64% | Form change and crystallinity by XRPD after compression ([6]; 5 minutes under 10 MPa, hydraulic press): no form change and no obvious crystallinity decrease | Form change and crystallinity by XRPD after dry grinding ([6]; ground manually with mortar and pestle for 5 min): no form change and slight crystallinity decrease | Form change and crystallinity by XRPD after wet granulation ([6]; water or ethanol, ground 3 min, dried 10 min): no form change and no obvious crystallinity decrease | Relative stability among solid forms ([3]; among Forms A-J): most stable form among Forms A-J
